Assay [1] deals with TEL-KIT fusion gene transfected cells (Ba/F3) (Homo sapiens, UniProt P10721). Description: Suppression of proliferation of TEL-KIT fusion gene transfected Ba/F3 cells.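 Further: viable cells quantified via formazan from tetrazolium reduction, inhibition scaled with 0.1% DMSO control as 0% and medium-only blank as 100%, IC50 from two-parameter logistic fit.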 Conditions: read-out: KIT/BaF3 proliferation inhibition (IC50); TEL-KIT expressing Ba/F3 cells, 72 hours, final concentration 0.1 to 10,000 nM.
TEL-KIT fusion gene transfected cells (Ba/F3) (Homo sapiens, UniProt P10721), sequence (P10721 26-976 limits assumed, change not shown): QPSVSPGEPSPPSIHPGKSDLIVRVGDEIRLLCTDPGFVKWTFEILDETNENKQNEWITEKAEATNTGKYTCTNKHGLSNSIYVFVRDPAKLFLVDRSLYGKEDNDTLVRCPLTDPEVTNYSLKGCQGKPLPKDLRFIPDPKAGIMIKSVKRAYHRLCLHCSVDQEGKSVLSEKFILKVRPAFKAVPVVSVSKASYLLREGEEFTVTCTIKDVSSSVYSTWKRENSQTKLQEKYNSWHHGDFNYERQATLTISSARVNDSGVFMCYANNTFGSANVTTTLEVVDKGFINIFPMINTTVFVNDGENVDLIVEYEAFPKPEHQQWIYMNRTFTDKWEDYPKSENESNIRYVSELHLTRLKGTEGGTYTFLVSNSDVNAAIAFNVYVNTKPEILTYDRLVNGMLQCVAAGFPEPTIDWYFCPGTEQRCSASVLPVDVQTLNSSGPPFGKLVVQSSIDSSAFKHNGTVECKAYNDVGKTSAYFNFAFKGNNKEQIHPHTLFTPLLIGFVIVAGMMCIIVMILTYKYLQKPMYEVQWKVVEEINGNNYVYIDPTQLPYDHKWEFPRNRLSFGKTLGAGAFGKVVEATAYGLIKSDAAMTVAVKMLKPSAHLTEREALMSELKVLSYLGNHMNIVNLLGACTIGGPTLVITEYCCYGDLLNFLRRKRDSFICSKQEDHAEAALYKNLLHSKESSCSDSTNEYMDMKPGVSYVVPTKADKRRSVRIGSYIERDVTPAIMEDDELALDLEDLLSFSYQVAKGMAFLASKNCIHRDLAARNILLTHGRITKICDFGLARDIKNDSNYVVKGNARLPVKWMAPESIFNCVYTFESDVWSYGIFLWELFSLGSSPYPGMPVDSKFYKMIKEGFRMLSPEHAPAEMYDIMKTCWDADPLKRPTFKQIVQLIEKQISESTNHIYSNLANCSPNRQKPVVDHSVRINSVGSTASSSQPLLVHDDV
From the text: (§3) Fabrication of TEL-PDGFRβ and TEL-KIT Fusion Gene Transfected Cells
(§4) Subsequently, the vectors for gene transfection were introduced using a transfection reagent (FuGENE6, Promega Corporation) into packaging cells derived from a human fetal kidney cell line, PLAT-E, in the logarithmic growth phase. Since the culture supernatant of PLAT-E after the gene transfection contained virus particles for gene transfection, it was collected and used as a medium for gene transfection. The medium for gene transfection was added to a plate coated with RetroNectin and incubated, and the virus particles were allowed to adhere to the plate. Thereafter, the mouse pro-B cell line Ba/F3 in the logarithmic growth phase was seeded onto the plate and infected with the virus to fabricate cells that proliferate in a PDGFRβ or KIT dependent manner.
(§5) The test substance was prepared with dimethyl sulfoxide (DMSO) to 10 mM and diluted with DMSO so as to reach a concentration of 0.0001 to 3 mM. Furthermore, it was diluted by 100 times with distilled water.
(§6) Measurement of Suppression Action Against Proliferation of TEL-PDGFRβ or TEL-KIT Expressing Cells
(§7) The day after TEL-PDGFRβ and TEL-KIT expressing cells were seeded onto 96 well plates, the prepared test substance solution was added thereto with a final concentration being 0.1 to 10,000 nM. After 72 hours, the viable cell count was measured using the amount of formazan generated from the reduction of a tetrazolium salt compound by the mitochondrial dehydrogenase of viable cells as an indicator.
(§8) Based on the amount of formazan in each condition, the suppression rate against cell proliferation was calculated when the amounts of formazan in the negative control (0.1% DMSO solution) and Blank (medium only) were defined as 0% and 100%, respectively. Subsequently, a nonlinear regression analysis with a two parameter logistic model for the log dose and suppression rate against cell proliferation was carried out using the SAS system (SAS Institute Inc.) to estimate the IC50 value.
For assay [2], the target named is TEL-PDGFRβ fusion gene transfected cells (Ba/F3) (Homo sapiens, UniProt P09619). Description: Suppression of proliferation of TEL-PDGFRβ fusion gene transfected Ba/F3 cells. In kind it is cell-based. Conditions: TEL-PDGFRβ expressing Ba/F3 cells, 72 hours, final concentration 0.1 to 10,000 nM; read-out: PDGFR β/BaF3 proliferation inhibition (IC50). The text has this:
(§1) 2. Preparation of Test Substance
(§2) 4. Analysis of Measurement Results

The next assay deals with PDGFR-β (Homo sapiens (Human), UniProt P09619). Description: PDGFR-β tyrosine kinase inhibitory action (HTRF KinEASE-TK). The format is biochemical. The following applies: PDGFR-β enzyme 1 ng/μL, 30° C. for 30 minutes; read-out: PDGF-β IC50. The procedure, abridged:
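Recombinant PDGFR-β at 1 ng/μL final with TK substrate-3-biotin in a substrate solution containing 0.6 μM ATP; buffer 50 mM HEPES pH 7.0, 5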

In assay [3] the test system is pulmonary arterial smooth muscle cells. Description: Suppression of proliferation of pulmonary arterial smooth muscle cells (PDGF-BB stimulation, BrdU). The format is cell-based. The following applies: read-out: Human normal PASMC proliferation suppression (PDGF stimulation_IC50). The procedure, abridged: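 Healthy human pulmonary arterial smooth muscle cells, serum-starved a day in 0.1% FBS medium, were treated with compound at final 3 to 10,000 nM plus human PDGF-BB (final 10 ng/mL) and BrdU. After 1 day of culture, BrdU uptake was measured with an anti-BrdU antibody.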

Assay [4] deals with TEL-PDGFRβ fusion gene transfected cells (Ba/F3). Description: Suppression of proliferation of TEL-PDGFRβ fusion gene transfected Ba/F3 cells. The following applies: TEL-PDGFRβ expressing Ba/F3 cells, 72 hours, final concentration 0.1 to 10,000 nM; read-out: PDGFR β/BaF3 proliferation inhibition (IC50). In kind it is cell-based, human.
From the text: as §1, §2

The target in assay [5] is TEL-KIT fusion gene transfected cells (Ba/F3). Nature of the assay: Suppression of proliferation of TEL-KIT fusion gene transfected Ba/F3 cells.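 Further: viable cells quantified via formazan from tetrazolium reduction, inhibition scaled with 0.1% DMSO control as 0% and medium-only blank as 100%, IC50 from two-parameter logistic fit.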 The following applies: read-out: KIT/BaF3 proliferation inhibition (IC50); TEL-KIT expressing Ba/F3 cells, 72 hours, final concentration 0.1 to 10,000 nM.
TEL-KIT fusion gene transfected cells (Ba/F3), sequence (P10721 26-976 limits assumed, change not shown): as above
From the text: as §3, §4, §5, §6, §7, §8
Setting [6] is: healthy human derived pulmonary arterial smooth muscle cells, human PDGF-BB 10 ng/mL stimulation, BrdU uptake after 1 day, test substance final concentration 3 to 10,000 nM.
Where [7] appears, read: PASMC, 24 h, healthy human derived pulmonary arterial smooth muscle cells, human PDGF-BB 10 ng/mL stimulation, BrdU uptake after 1 day, test substance final concentration 3 to 10,000 nM.

Where two headings read alike, the source gives them in different places.

Here are results for 21 molecules from patent US12509424B2, “Compound and composition as PDGF receptor kinase inhibitor” (NIPPON SHINYAKU CO., LTD., priority 2019, dated 2025).

PDGFR-β, sequence (P09619 33-1106): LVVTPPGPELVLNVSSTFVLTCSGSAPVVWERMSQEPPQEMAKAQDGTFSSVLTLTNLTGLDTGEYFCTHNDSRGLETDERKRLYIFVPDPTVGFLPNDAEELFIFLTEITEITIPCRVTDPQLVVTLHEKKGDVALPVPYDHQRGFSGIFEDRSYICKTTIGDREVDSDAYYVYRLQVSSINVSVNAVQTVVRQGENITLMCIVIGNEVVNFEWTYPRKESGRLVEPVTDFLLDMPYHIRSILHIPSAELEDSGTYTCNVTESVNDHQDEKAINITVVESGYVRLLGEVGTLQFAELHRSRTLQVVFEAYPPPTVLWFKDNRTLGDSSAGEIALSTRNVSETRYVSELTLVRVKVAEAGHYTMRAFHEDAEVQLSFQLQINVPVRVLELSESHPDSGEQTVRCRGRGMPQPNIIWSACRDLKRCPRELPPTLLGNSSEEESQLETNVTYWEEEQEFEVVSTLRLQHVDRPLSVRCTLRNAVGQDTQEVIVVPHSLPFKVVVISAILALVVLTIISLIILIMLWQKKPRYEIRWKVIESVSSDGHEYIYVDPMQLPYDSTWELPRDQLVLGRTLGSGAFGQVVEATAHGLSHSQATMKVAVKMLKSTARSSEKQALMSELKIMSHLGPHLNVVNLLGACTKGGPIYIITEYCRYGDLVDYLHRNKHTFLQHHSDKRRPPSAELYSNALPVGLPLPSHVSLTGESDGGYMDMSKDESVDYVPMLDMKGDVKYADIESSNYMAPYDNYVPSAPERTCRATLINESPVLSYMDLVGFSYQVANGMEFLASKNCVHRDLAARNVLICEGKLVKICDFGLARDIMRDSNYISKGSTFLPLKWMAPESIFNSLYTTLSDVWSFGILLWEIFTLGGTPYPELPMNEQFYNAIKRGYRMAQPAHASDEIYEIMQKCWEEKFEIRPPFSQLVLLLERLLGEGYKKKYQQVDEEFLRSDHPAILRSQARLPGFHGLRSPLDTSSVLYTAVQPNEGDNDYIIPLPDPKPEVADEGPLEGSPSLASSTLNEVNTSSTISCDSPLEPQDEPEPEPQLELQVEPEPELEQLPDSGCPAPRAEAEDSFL
TEL-PDGFRβ fusion gene transfected cells (Ba/F3) (Homo sapiens, UniProt P09619), sequence (P09619 33-1106 limits assumed, change not shown): as the sequence (P09619 33-1106) above

As to “3-{[([3,3′-bipyridin]-5-yl)methyl]amino}-N-[(1S,2S)-2-hydroxycyclohexyl]-4-methylbenzamide [Example 93]”, the IC50 in assay [1] worked out at 6200 nM; in assay [2] it was 45 nM; on PDGFR-β, 360 nM; in assay [3] (setting [6]) it was 260 nM.

As to `Cc1ccc(CNc2cncc(-c3ncccn3)c2)cc1NC(=O)N[C@@H]1CCCC[C@@H]1O` [Example 163, N-[(1R,2S)-2-hydroxycyclohexyl]-N′-[2-methyl-5-({[5-(pyrimidin-2-yl)pyridin-3-yl]amino}methyl)phenyl]urea], the IC50 in assay [1] amounted to 2600 nM; in assay [4], 200 nM; on PDGFR-β, 260 nM; in assay [3] (setting [6]) it was 150 nM.

With `Cc1ccc(C(=O)N[C@H]2CCCC[C@@H]2O)cc1/C=C/c1cncc(-c2ccccc2)c1` [Example 173, N-[(1S,2S)-2-hydroxycyclohexyl]-4-methyl-3-[(E)-2-(5-phenylpyridin-3-yl)ethenyl]benzamide], the figures for the IC50 (in assay [1]; in assay [2]; on PDGFR-β) were 700 nM, 4.6 nM and 54 nM, respectively.

Consider `Cc1ccc(C(=O)N[C@H]2CCCC[C@@H]2O)cc1C#Cc1cncc(-c2ccccc2)c1` [Example 60, N-[(1S,2S)-2-hydroxycyclohexyl]-4-methyl-3-[(5-phenylpyridin-3-yl)ethynyl]benzamide], for which the IC50 in assay [1] amounted to 410 nM; in assay [2] it was 5.9 nM; on PDGFR-β, 46 nM; in assay [3] (setting [7]) it was 26 nM.

For `Cc1ccc(C(=O)N[C@H]2CCCC[C@@H]2O)cc1C#Cc1cncc(C2CC2)c1` [Example 67, 3-[(5-cyclopropylpyridin-3-yl)ethynyl]-N-[(1S,2S)-2-hydroxycyclohexyl]-4-methylbenzamide], the IC50 in assay [5] is 300 nM; in assay [4], 5.2 nM; at PDGFR-β, 43 nM; in assay [3] (setting [7]) it was 120 nM.

Consider `Cc1ccc(C(=O)N[C@H]2CCCC[C@@H]2O)cc1NC(=O)c1cncc(-c2ccc(F)cc2F)c1` [Example 31, 5-(2,4-difluorophenyl)-N-(5-{[(1S,2S)-2-hydroxycyclohexyl]carbamoyl}-2-methylphenyl)pyridine-3-carboxamide], for which the IC50 in assay [5] stood at 1000 nM; in assay [4], 8 nM; at PDGFR-β, 73 nM; in assay [3] (setting [7]) it was 100 nM.

For `Cc1ccc(C(=O)N[C@H]2CCCC[C@@H]2O)cc1NCc1cncc(C#CC2CC2)c1` [Example 94, 3-({[5-(cyclopropylethynyl)pyridin-3-yl]methyl}amino)-N-[(1S,2S)-2-hydroxycyclohexyl]-4-methylbenzamide], the IC50 in assay [5] worked out at 260 nM; in assay [4], 10 nM; on PDGFR-β, 49 nM; in assay [3] (setting [7]), 90 nM.

For the molecule `O=C(Nc1cccc(CNc2cncc(-c3ncccn3)c2)c1)N[C@@H]1CCCC[C@@H]1O` [Example 159, N-[(1R,2S)-2-hydroxycyclohexyl]-N′-[3-({[5-(pyrimidin-2-yl)pyridin-3-yl]amino}methyl)phenyl]urea], the IC50 came out at 380 nM in assay [5], 1.7 nM in assay [4], 26 nM at PDGFR-β and 21 nM in assay [3] (setting [7]).

As to `Cc1ccc(C(=O)N[C@H]2CCCC[C@@H]2O)cc1NC(=O)c1cncc(-c2ccccc2F)c1` [Example 29, 5-(2-fluorophenyl)-N-(5-{[(1S,2S)-2-hydroxycyclohexyl]carbamoyl}-2-methylphenyl)pyridine-3-carboxamide], the IC50 in assay [5] amounted to 290 nM; in assay [4] it was 7.5 nM; on PDGFR-β it was 35 nM; in assay [3] (setting [7]), 130 nM.

As for `Cc1ccc(C(=O)N[C@H]2CCCC[C@@H]2O)cc1Nc1ccnc(-c2cncc3ccccc23)n1` [Example 79, N-[(1S,2S)-2-hydroxycyclohexyl]-3-{[2-(isoquinolin-4-yl)pyrimidin-4-yl]amino}-4-methylbenzamide], the IC50 in assay [5] worked out at 2000 nM; in assay [4], 46 nM; at PDGFR-β, 120 nM; in assay [3] (setting [7]), 170 nM.

Turning to `Cc1c(F)cc(C(=O)N[C@H]2CCCC[C@@H]2O)cc1NC(=O)c1cncc(OCC2CC2)c1` [Example 46, 5-(cyclopropylmethoxy)-N-(3-fluoro-5-{[(1S,2S)-2-hydroxycyclohexyl]carbamoyl}-2-methylphenyl)pyridine-3-carboxamide], the IC50 in assay [5] is 410 nM; in assay [4], 17 nM; at PDGFR-β it was 77 nM; in assay [3] (setting [7]), 370 nM.

Take `O=C(Nc1cc(CNc2cncc(-c3ncccn3)c2)ccc1F)N[C@@H]1CCCC[C@@H]1O` [Example 160, N-[2-fluoro-5-({[5-(pyrimidin-2-yl)pyridin-3-yl]amino}methyl)phenyl]-N′-[(1R,2S)-2-hydroxycyclohexyl]urea]: the IC50 amounted to 1200 nM in assay [5], 5.9 nM in assay [4], 46 nM at PDGFR-β and 44 nM in assay [3] (setting [7]).

As to `Cc1ccc(C(=O)N[C@H]2CCCC[C@@H]2O)cc1N[C@@H](C)c1cncc(-c2ccccc2)c1` [Example 84, N-[(1S,2S)-2-hydroxycyclohexyl]-4-methyl-3-{[(1S)-1-(5-phenylpyridin-3-yl)ethyl]amino}benzamide], the IC50 in assay [5] is 500 nM; in assay [4], 50 nM; at PDGFR-β, 19 nM; in assay [3] (setting [7]), 160 nM.

Turning to `Cc1ccc(C(=O)N[C@H]2CCCC[C@@H]2O)cc1NCc1cncc(C#CC2(O)CC2)c1` [Example 97, N-[(1S,2S)-2-hydroxycyclohexyl]-3-[({5-[(1-hydroxycyclopropyl)ethynyl]pyridin-3-yl}methyl)amino]-4-methylbenzamide], the IC50 in assay [5] was 1900 nM; in assay [4] it was 20 nM; on PDGFR-β it was 100 nM; in assay [3] (setting [7]) it was 160 nM.

On to `Cc1ccc(C(=O)N[C@H]2CCCC[C@@H]2O)cc1NCc1cncc(-c2ccccc2)c1` [Example 92, N-[(1S,2S)-2-hydroxycyclohexyl]-4-methyl-3-{[(5-phenylpyridin-3-yl)methyl]amino}benzamide], for which the IC50 in assay [5] stood at 1400 nM; in assay [4] it was 20 nM; on PDGFR-β, 46 nM; in assay [3] (setting [7]), 66 nM.

On to `Cc1ccc(C(=O)N[C@H]2CCCC[C@@H]2O)cc1NC(=O)c1cncc(-c2ccc(C(F)(F)F)cc2F)c1` [Example 36, 5-[2-fluoro-4-(trifluoromethyl)phenyl]-N-(5-{[(1S,2S)-2-hydroxycyclohexyl]carbamoyl}-2-methylphenyl)pyridine-3-carboxamide], for which the IC50 in assay [5] worked out at 3500 nM; in assay [4] it was 25 nM; at PDGFR-β, 130 nM; in assay [3] (setting [7]), 92 nM.

With `COc1ccc(-c2cncc(C(=O)Nc3cc(C(=O)N[C@H]4CCCC[C@@H]4O)ccc3C)c2)c(F)c1` [Example 33, 5-(2-fluoro-4-methoxyphenyl)-N-(5-{[(1S,2S)-2-hydroxycyclohexyl]carbamoyl}-2-methylphenyl)pyridine-3-carboxamide], the IC50 in assay [5] was determined as 880 nM; in assay [4], 80 nM; on PDGFR-β, 19 nM; in assay [3] (setting [7]), 67 nM.

In the case of `Cc1ccc(C(=O)N[C@H]2CCCC[C@@H]2O)cc1N[C@@H](C)c1cncc(-c2cccnc2)c1` [Example 85, 3-{[(1S)-1-([3,3′-bipyridin]-5-yl)ethyl]amino}-N-[(1S,2S)-2-hydroxycyclohexyl]-4-methylbenzamide], the IC50 is 4600 nM in assay [5], 19 nM in assay [4], 180 nM at PDGFR-β and 130 nM in assay [3] (setting [7]).

As for `Cc1cncc(C#Cc2cc(C(=O)N[C@H]3CCCC[C@@H]3O)ccc2C)c1` [Example 59, N-[(1S,2S)-2-hydroxycyclohexyl]-4-methyl-3-[(5-methylpyridin-3-yl)ethynyl]benzamide], the IC50 in assay [5] was determined as 500 nM; in assay [4] it was 27 nM; at PDGFR-β, 210 nM; in assay [3] (setting [7]), 93 nM.

In the case of `O=C(N[C@H]1CCCC[C@@H]1O)c1ccc(Cl)c(C#Cc2cncc(Br)c2)c1` [Example 57, 3-[(5-bromopyridin-3-yl)ethynyl]-4-chloro-N-[(1S,2S)-2-hydroxycyclohexyl]benzamide], the IC50 was 6900 nM in assay [5], 440 nM in assay [4], 51 nM on PDGFR-β and 420 nM in assay [3] (setting [7]).

On to `Cc1ccc(C(=O)N[C@H](CO)c2ccccc2)cc1NC(=O)c1cncc(-c2ccccc2)c1` [Example 6, N-(5-{[(1S)-2-hydroxy-1-phenylethyl]carbamoyl}-2-methylphenyl)-5-phenylpyridine-3-carboxamide], for which the IC50 was 170 nM in assay [5]; 14 nM in assay [4]; 12 nM on PDGFR-β; 23 nM in assay [3] (PASMC, human PDGF-BB 10 ng/mL, BrdU uptake, final concentration 3 to 10,000 nM).
